Legend:
Assay type in all cases: in vivo, human
[1] = test system: relapsed or refractory (r/r) Hodgkin Lymphoma (HL) or systemic anaplastic large-cell lymphoma (sALCL); assay: Example 2: BSA-based BV monotherapy in pediatric patients
Description: Pediatric study subjects are administered BV (administered IV infusion, once every three weeks (21 days)) at a dose of 71.5 mg/m^2. Each 21-day treatment cycle is composed of 1 day study drug treatment, followed by a monitoring period of 20 days. Patients may receive BV for up to 16 cycles. Objective response rates (ORR; complete remission (CR)+ partial remission (PR)) are determined by an independent review facility (IRF) using PET, CT, MRI and, clinical assessment according to the International Working Group (IWG) Revised Response Criteria for Malignant Lymphoma. Time to progression (from the first dose of study treatment to the date of first documented progressive disease), time to response (from the first dose of study treatment to the date of first documentation of a complete or partial response), duration of response (from the date of first documentation of a response to the date of progressive disease), event-free survival (from first dose until treatment failure), progression-free survival (PFS; from the first dose of study treatment to disease progression or death), and overall survival (OS; from the first dose of study treatment to date of death) are also evaluated. Patients are followed for progression-free survival (PFS) and overall survival (OS) every 12 weeks for 12 months after the end of treatment (EOT) visit. […]

[2] = test system: CD30-positive cutaneous t-cell lymphomas; assay: Example 5: BSA-based BV versus methotrexate or bexarotene in pediatric patients; conditions: BV 71.5 mg/m^2 IV every three weeks, monotherapy, up to 16 cycles
Description: Pediatric (non adult human) patients with CD30-positive cutaneous t-cell lymphomas (Primary Cutaneous Anaplastic Large Cell Lymphoma, Mycosis Fungoides, Cutaneous T-Cell Lymphoma) are provided. Study subjects are randomly assigned to one of the following treatments: 1) BV (administered IV, once every three weeks (21 days)) at a dose of 71.5 mg/m^2 as monotherapy for up to a total of 16 cycles; or 2) physician's choice of methotrexate or bexarotene (methotrexate is administered orally (5 to 50 mg) once weekly; dose adjustment is guided by patient response and toxicity or bexarotene is administered orally (300 mg/m^2) once daily with meals).
The proportion of patients achieving an objective response (ORR; complete remission (CR)+partial remission (PR)) that lasts at least 4 months is evaluated. The proportion of patients achieving complete response (CR) and progression-free survival (PFS) are also evaluated.

[3] = Phase 1/2 pediatric study of brentuximab vedotin: serum pharmacokinetics; conditions: pediatric patients, 1.4 or 1.8 mg/kg body weight every 3 weeks, AUC versus age (FIG. 1A)
Excerpt: This study had assessment of pharmacokinetics of BV in pediatric patients as one of its objectives.
The goal of phase 1 portion of the study was to establish safety and define MTD (maximum tolerated dose) of brentuximab vedotin in pediatric hematological malignancies with high expression of CD30, both HL and ALCL were included in the phase 1 study population. The phase 2 study was designed to administer brentuximab vedotin at the RP2D (recommended phase II dose) determined as the MTD [Maximum Tolerated Dose] in the phase 1 portion of the study.
Blood samples for determining BV levels from the serum were obtained at several time points during treatment with BV at the dose of 1.4 or 1.8 mg/kg body weight every 3 weeks. These doses were within the range of doses that were previously determined to be safe and efficacious in the adult population in earlier studies (Younes, et al., N. Engl J Med 363; 19, Nov. 2010).
The pharmacokinetic analyses described here included pharmacokinetic data from 30 pediatric patients for the initial analyses.

brentuximab vedotin
CR, PR, PFS, OS relative to treatments without BV ([1]; 71.5 mg/m^2 IV once every three weeks, up to 16 cycles): one or more of improved CR, PR, PFS, or OS
CR, PR, PFS, OS of BSA-adjusted doses relative to weight-adjusted dose ([1]; 71.5 mg/m^2 versus BV at a weight-adjusted dose): one or more of improved CR, PR, PFS or OS
ORR, CR, PFS relative to methotrexate or bexarotene [2]: one or more of improved ORR, CR or PFS
systemic exposure to BV as measured by the Area Under the concentration-time Curve (AUC) [3]: decrease in age from about 18 years led to decrease systemic exposure to BV

Source: US12303724B2, “Non-adult human dosing of anti-CD30 antibody-drug conjugates for treatment of hematological or lymphoid cancer” (priority 2016, dated 2025)
